One data set concerns the target T1, Thromboxane-A synthase (Homo sapiens, UniProt P24557).
T1 sequence (P24557 whole entry): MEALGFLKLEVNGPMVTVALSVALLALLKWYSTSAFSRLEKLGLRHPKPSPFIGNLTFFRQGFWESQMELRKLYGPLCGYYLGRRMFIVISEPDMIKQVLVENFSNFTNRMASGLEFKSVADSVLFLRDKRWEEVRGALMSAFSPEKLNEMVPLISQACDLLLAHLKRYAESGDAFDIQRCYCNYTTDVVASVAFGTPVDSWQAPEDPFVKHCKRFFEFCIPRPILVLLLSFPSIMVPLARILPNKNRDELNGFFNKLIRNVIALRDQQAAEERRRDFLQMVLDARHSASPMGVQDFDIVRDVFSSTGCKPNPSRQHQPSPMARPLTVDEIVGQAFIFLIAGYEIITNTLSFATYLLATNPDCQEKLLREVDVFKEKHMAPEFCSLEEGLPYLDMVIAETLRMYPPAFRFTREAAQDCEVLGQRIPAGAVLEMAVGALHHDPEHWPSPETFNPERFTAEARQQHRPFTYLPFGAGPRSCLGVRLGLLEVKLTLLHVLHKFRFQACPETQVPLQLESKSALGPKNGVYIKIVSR
The data set is described as follows: Inhibition of TXA2 synthetase from human platelets.

The target in another data set is T2, Cyclooxygenase (Rattus norvegicus, UniProt P35355+Q63921).
T2 sequence (P35355 whole entry): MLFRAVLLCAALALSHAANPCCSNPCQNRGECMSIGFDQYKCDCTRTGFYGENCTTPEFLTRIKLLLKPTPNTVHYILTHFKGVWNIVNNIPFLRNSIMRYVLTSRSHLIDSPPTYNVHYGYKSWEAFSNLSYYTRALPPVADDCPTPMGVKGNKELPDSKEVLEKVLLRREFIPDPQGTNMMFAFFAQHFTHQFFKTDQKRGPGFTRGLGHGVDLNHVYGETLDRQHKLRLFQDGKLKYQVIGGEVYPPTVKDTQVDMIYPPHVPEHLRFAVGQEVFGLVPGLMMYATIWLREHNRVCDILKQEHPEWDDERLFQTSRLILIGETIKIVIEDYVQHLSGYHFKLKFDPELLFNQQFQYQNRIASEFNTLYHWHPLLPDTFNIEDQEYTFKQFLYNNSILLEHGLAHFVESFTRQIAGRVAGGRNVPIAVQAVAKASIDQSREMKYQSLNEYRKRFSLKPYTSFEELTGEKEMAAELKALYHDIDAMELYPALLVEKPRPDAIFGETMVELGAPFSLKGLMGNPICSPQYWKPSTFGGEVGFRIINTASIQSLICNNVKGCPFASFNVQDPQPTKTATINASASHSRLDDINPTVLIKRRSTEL
T2 sequence (Q63921 whole entry): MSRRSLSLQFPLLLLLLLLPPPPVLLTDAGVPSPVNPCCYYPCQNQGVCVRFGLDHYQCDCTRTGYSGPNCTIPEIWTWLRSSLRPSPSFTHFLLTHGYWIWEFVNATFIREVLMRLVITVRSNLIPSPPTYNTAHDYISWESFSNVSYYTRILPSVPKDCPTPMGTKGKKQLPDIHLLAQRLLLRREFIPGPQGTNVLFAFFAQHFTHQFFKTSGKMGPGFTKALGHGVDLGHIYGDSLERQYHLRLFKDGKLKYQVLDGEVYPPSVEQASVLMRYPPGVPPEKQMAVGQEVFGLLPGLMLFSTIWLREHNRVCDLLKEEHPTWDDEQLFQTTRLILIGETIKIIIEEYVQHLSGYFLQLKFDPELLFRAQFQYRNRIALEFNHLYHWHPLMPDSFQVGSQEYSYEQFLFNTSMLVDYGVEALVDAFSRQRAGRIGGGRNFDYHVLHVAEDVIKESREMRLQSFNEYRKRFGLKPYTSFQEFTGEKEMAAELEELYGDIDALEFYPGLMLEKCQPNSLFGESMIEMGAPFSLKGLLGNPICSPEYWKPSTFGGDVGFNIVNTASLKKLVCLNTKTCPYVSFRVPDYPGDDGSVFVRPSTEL
In words: Inhibition of cyclooxygenase from RBL-1 cells. The format is cell-based.

The target in data set [1] is T3, Cytochrome P450 11B1, mitochondrial (Rattus norvegicus, UniProt P15393).
T3 sequence (P15393 whole entry): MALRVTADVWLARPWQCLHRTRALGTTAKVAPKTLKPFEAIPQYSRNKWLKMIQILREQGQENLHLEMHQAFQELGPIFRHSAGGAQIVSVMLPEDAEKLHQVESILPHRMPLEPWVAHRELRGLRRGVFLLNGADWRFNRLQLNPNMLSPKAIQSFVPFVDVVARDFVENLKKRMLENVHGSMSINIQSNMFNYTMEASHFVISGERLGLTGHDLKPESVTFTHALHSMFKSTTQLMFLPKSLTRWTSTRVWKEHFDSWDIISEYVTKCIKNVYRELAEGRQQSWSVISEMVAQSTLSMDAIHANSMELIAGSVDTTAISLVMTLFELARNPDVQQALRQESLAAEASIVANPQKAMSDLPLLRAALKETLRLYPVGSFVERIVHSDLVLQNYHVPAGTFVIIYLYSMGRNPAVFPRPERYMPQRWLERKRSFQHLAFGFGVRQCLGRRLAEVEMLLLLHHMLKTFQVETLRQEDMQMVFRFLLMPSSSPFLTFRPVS
The data set is described as follows: Inhibition of rat adrenal 11-beta-hydroxylase.

A short description of data set [2]: Ionisation constant in presence of acid. Format: ADME.
A short description of data set [3]: Ionisation constant in presence of base. Format: ADME.

What is called IC50 is the point on the concentration scale where inhibition reaches its midpoint. Read a low IC50 as greater potency. What is called pKa is the negative logarithm of the acid dissociation constant.

Bounds are passed on as bounds.

At Thromboxane-A synthase, `Cc1c(Cn2ccnc2)[nH]c2ccc(C(=O)O)cc12` registered a 50% inhibitory concentration (IC50) of 37 nM.
On the same count and under the same terms, then `O=C(O)c1ccc2cc(Cn3ccnc3)ccc2c1`, with 34 nM.
With `O=C(O)c1ccc2sc(Cn3ccnc3)c(Cl)c2c1`, the results for the IC50 against Cyclooxygenase and against Thromboxane-A synthase were greater than 0.0002 M and 22 nM, respectively.
For `O=C(O)c1cccc2cc(Cn3ccnc3)ccc12`, 71 nM corresponded to half-maximal inhibition on Thromboxane-A synthase (IC50).
Regarding `Cc1c(Cn2ccnc2)sc2ccc(C(=O)O)cc12`, the IC50 was greater than 100000 nM in data set [1], greater than 0.0002 M on Cyclooxygenase and 17 nM against Thromboxane-A synthase. Besides, the pKa in data set [2] turned out to be 3.82; in data set [3], 6.58.
On Thromboxane-A synthase, `O=C(O)c1ccc2oc(Cn3ccnc3)c(Br)c2c1` had a 50% inhibitory concentration (IC50) of 30 nM. This lies in the double-digit nanomolar range.
`Cc1c(Cn2ccnc2)oc2ccc(C(=O)O)cc12`: the IC50 was 100000 nM in data set [1], greater than 0.0002 M on Cyclooxygenase and 34 nM against Thromboxane-A synthase. For the same compound, the pKa turned out to be 3.91 in data set [2] and 6.08 in data set [3].
On to `CSc1c(Cn2ccnc2)sc2ccc(C(=O)O)cc12`, for which the IC50 against Thromboxane-A synthase was determined as 43 nM.
As for `Cc1c(Cn2ccnc2)n(C)c2ccc(C(=O)O)cc12`, the pKa was found to be 4.08 in data set [2] and 6.32 in data set [3]. The IC50 at Cyclooxygenase was greater than 0.0002 M; on Thromboxane-A synthase it was 32 nM.
`O=C(O)c1ccc2oc(Cn3ccnc3)cc2c1` had a concentration for half-maximal inhibition (IC50) against Thromboxane-A synthase of 12 nM.
In the case of `O=C(O)c1ccc2sc(Cn3ccnc3)cc2c1`, the IC50 in data set [1] is greater than 100000 nM; against Cyclooxygenase, greater than 0.0002 M; on Thromboxane-A synthase it was 15 nM. The pKa in data set [2] stood at 3.9; in data set [3] it was 6.34.
For the compound `Cc1c(Cn2ccnc2)sc2cc(C(=O)O)ccc12`, the IC50 was greater than 0.0002 M at Cyclooxygenase and 18 nM against Thromboxane-A synthase.
As to `O=C(O)c1ccc2c(Cl)c(Cn3ccnc3)sc2c1`, the 50% inhibitory concentration (IC50) at Cyclooxygenase was greater than 0.0002 M; on Thromboxane-A synthase, 40 nM.
`O=C(O)c1ccc2sc(Cn3ccnc3)c(Br)c2c1`: the IC50 in data set [1] is greater than 100000 nM; at Thromboxane-A synthase it was 27 nM.
For the compound `O=C(O)c1ccc2oc(Cn3ccnc3)c(Cl)c2c1`, the results for the IC50 (in data set [1]; against Cyclooxygenase; against Thromboxane-A synthase) were greater than 100000 nM, greater than 0.0002 M and 31 nM, respectively.
`O=C(O)c1ccc(OCCn2ccnc2)cc1` [DAZOXIBEN] gave an IC50 in data set [1] greater than 100000 nM.

The record behind these values is ChEMBL document CHEMBL1123364, “Selective thromboxane synthetase inhibitors. 4. 2-(1H-imidazol-1-ylmethyl) carboxylic acids of benzo[b]furan, benzo[b]thiophene, indole, and naphthalene” (J Med Chem, 1986).
